# Values of other authors in US20260144768A1, “MODIFIED RELEASE GAMMA-HYDROXYBUTYRATE FORMULATIONS HAVING IMPROVED PHARMACOKINETICS” (Flamel Ireland Limited, priority 2022, published 2026).
# Read-outs that look alike come from different tables or passages of the source.
# What was measured:
# [1] = system: mouse; conditions: 2-year study
# [2] = system: rat; conditions: 2-year study
# [3] = system: rats; conditions: 150, 350, or 1,000 mg/kg/day oral
# [4] = biological target: CYP2C9 (Homo sapiens, UniProt P11712); conditions: up to 3 mM (378 mcg/mL)
# [5] = system: rat; conditions: in vivo
# [6] = biological target: CYP2E1 (Homo sapiens, UniProt P05181); conditions: up to 3 mM (378 mcg/mL)
# [7] = biological target: CYP2D6 (Homo sapiens, UniProt P10635); conditions: up to 3 mM (378 mcg/mL)
# [8] = system: CYP3A; conditions: up to 3 mM (378 mcg/mL)
# [9] = system: rats
# [10] = system: pregnant rats; conditions: 150, 350, or 1,000 mg/kg/day oral
# [11] = biological target: CYP2C19 (Homo sapiens, UniProt P33261); conditions: up to 3 mM (378 mcg/mL)
# [12] = biological target: T1, CYP1A2 (Homo sapiens, UniProt P05177); conditions: up to 3 mM (378 mcg/mL)
# T1 sequence (P05177 1-516): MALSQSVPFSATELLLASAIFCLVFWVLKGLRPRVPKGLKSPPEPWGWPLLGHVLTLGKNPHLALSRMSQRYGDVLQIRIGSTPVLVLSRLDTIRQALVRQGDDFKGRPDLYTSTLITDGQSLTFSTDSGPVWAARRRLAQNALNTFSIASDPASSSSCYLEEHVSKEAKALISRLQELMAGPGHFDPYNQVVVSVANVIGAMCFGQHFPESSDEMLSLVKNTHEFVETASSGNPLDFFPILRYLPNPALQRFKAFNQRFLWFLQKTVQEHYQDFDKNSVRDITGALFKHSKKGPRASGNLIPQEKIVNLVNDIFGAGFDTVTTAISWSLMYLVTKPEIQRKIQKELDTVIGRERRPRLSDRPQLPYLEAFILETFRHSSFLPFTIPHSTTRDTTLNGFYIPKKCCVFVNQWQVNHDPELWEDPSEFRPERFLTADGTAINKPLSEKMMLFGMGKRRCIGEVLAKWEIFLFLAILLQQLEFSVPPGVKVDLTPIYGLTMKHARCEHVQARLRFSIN
# [13] = system: bacterial gene mutation; conditions: in vitro
# [14] = system: mammalian cells; conditions: in vitro
# [15] = 6 g per day (2 × 3 g) with ibuprofen 800 mg/dose four times per day
# [16] = system: pregnant rabbits; conditions: 300, 600, or 1,200 mg/kg/day oral
# [17] = system: rats; remark: listed apart in the source
# [18] = system: plasma proteins; conditions: GHB 3 mcg/mL to 300 mcg/mL
# [19] = not given; remark: listed apart in the source
# Chain of CYP2C9 (P11712 whole entry): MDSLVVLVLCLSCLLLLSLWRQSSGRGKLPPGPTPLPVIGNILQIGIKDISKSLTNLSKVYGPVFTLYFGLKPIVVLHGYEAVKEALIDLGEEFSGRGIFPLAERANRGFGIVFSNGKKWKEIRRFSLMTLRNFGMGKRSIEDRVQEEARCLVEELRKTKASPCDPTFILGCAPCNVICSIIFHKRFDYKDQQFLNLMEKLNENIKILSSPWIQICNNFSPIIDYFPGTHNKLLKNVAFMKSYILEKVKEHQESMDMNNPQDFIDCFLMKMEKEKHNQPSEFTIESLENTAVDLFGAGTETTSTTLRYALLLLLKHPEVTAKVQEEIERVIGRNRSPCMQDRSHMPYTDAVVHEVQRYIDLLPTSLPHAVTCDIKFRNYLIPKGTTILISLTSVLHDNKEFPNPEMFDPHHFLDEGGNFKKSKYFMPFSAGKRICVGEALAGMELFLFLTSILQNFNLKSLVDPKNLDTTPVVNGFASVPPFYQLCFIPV
# Chain of CYP2C19 (P33261 whole entry): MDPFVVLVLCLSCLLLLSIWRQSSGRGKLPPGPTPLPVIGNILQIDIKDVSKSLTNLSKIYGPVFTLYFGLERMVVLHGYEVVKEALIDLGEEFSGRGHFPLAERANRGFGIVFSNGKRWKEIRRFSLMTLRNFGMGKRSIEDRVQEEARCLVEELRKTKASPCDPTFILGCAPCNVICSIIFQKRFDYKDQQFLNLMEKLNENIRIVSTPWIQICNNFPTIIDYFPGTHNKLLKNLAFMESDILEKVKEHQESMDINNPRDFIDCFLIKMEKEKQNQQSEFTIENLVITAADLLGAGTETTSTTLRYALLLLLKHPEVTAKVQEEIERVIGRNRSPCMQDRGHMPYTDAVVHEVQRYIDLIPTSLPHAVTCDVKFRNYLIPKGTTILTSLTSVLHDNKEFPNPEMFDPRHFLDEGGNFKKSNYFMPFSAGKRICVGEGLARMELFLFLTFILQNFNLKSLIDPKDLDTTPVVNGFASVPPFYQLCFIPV
# Chain of CYP2E1 (P05181 whole entry): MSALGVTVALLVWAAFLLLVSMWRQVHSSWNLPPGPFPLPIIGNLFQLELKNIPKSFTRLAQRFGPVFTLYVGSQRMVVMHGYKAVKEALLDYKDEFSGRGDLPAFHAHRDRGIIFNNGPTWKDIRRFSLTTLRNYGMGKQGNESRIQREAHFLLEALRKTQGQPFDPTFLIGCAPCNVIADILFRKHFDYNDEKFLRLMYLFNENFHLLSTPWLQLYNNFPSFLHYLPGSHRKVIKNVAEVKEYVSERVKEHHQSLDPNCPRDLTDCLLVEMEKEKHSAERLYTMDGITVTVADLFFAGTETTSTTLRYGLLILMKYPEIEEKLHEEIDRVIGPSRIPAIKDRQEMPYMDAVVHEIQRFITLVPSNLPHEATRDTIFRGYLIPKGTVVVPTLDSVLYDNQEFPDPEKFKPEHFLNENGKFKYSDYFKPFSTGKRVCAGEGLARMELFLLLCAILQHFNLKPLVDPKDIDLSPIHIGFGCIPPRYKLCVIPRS
# Chain of CYP2D6 (P10635 whole entry): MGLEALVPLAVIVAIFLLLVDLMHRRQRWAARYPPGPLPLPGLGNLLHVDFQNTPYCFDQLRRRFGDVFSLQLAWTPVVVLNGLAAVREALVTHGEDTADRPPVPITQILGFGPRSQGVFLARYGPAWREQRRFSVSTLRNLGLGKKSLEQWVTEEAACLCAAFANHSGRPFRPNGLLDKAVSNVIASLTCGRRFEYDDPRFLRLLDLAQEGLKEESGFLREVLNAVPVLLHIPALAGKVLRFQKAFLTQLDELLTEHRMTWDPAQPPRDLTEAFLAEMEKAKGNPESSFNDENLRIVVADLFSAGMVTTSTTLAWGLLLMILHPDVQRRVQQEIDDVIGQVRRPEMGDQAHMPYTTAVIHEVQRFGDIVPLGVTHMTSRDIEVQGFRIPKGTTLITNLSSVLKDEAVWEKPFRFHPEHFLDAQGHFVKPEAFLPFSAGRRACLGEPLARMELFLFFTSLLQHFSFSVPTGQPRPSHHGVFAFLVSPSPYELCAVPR
smiles,measurement,setting,value
O=C1CCCO1 [gamma-butyrolactone],Carcinogenic activity,[1],no clear evidence of carcinogenic activity
same,Carcinogenic activity,[2],no clear evidence of carcinogenic activity
"O=C([O-])CCCO.[Na+] [sodium oxybate, sodium 4-hydroxybutyrate]",Effects on fertility,[3],no adverse effects on fertility
same,Inhibition of CYP2C9 activity,[4],does not significantly inhibit
same,Micronucleus,[5],negative
same,Inhibition of CYP2E1 activity,[6],does not significantly inhibit
same,Inhibition of CYP2D6 activity,[7],does not significantly inhibit
same,Inhibition of CYP3A activity,[8],does not significantly inhibit
same,Plasma exposure (AUC) relative to humans at the MRHD of 9 g per night,[9]; highest dose tested,2 times
same,Tumors,"[9]; oral doses up to 1,000 mg/kg/day",no increase in tumors
same,Developmental toxicity,[10],no clear evidence of developmental toxicity
same,Inhibition of CYP2C19 activity,[11],does not significantly inhibit
same,Inhibition of CYP1A2 activity,[12],does not significantly inhibit
same,Bacterial gene mutation,[13],negative
same,Chromosomal aberration,[14],negative
same,Systemic exposure to GHB on co-administration,[15],comparable
same,Developmental toxicity,[16],no clear evidence of developmental toxicity
same,Mortality,"[17]; 0, 100, 300, or 900 mg/kg/day, two highest doses",mortality was observed
same,Findings at the highest dose tested,[17]; 900 mg/kg/day,Reduced body weight gain in males and females and delayed sexual maturation in males
"O=C(O)CCCO [GHB, gamma-hydroxybutyrate]",Apparent volume of distribution,in vivo,0.19 to 0.384 L/kg
same,Elimination half-life,in vivo,30 to 60 min
same,Unchanged drug in human urine,within 6 to 8 hours after dosing,less than 5%
same,Bound to plasma proteins,[18],less than 1%
same,Apparent oral clearance,[19]; Child's Class A,4.5 mL/min/kg
same,Mean t1/2,[19]; Child's Class A,32 min
same,Apparent oral clearance,[19]; Child's Class C,4.1 mL/min/kg
same,Mean t1/2,[19]; Child's Class C,59 min
same,Mean t1/2,[19]; control patients,22 min
same,Apparent oral clearance,[19]; healthy adults,9.1 mL/min/kg
